{"source": "patent US6613797B2", "about": "“Xanthone analogs for treating infectious diseases and complexation of heme and porphyrins” (Interlab, Inc., priority 1999, dated 2003)", "key": {"[1]": {"system": "Plasmodium falciparum D6 strain", "test": "in vitro anti-malarial activity, [3H]-ethanolamine incorporation method", "format": "cell-based", "settings": "Plasmodium falciparum, D6; Table 1, reproduced from U.S. Pat. No. 5,977,077; read-out: IC50, μM vs. Plasmodium", "description": "Cultures were maintained at 37° C. in a gas mixture of 5% oxygen, 5% CO2, and 90% nitrogen.\n[^3H]-ethanolamine was obtained from American Radiolabeled Chemicals, Inc., St. Louis, Mo. Experiments were conducted in 96 well plates in a total volume of 200 μl at a final red blood cell concentration of 2% (v/v). An initial parasitemia of 0.2 to 0.5% was attained by addition of normal uninfected red cells. Radiolabeled ethanolamine was added after 48 hours of incubation and the experiment was terminated after 72 hours by collecting the cells onto glass fiber filters with an automated multiwell harvester.\nStock solutions of the various Formula X1 compounds were dissolved in DMSO at a concentration of 1 mM and diluted in complete medium (including 10% human serum) to provide 10X stock concentrations in the range of 1 to 10,000 nM."}, "Leishmania donovani [2]": {"system": "Leishmania donovani", "test": "anti-Leishmania activity, promastigote radiolabeled thymidine uptake assay", "format": "cell-based", "description": "Leishmania donovani was cultivated in Schneider's medium (Gibco, Grand Island, N.Y.) according to the methods described by Grogl et al. (1992). The in vitro susceptibility of L. donovani to Formula X1 compounds was determined using the radiolabeled thymidine uptake assay essentially as described by Grogl et al. (1992). Briefly, promastigotes were cultivated at 25° C. in Schneider's medium supplemented with 20% inactivated fetal calf serum and 100 μg/mL of gentamicin. Cells were maintained in log phase by seeding at 1×10^6/mL with subculturing when cultured densities approached 4×10^7/mL before reaching their maximal density. For the assay, early log phase promastigotes were counted on a hemacytometer and resuspended at a concentration of 1-2×10^6 cell/mL in assay media (Schneider's medium plus 10% fetal bovine serum). Ten-fold serial dilutions of each test compound were prepared as described above and added to 180 μL of the parasite suspension. After incubation for 24 hours at 25° C., methyl-^3H-thymidine was added to each sample for a final concentration of 1-2 μCi per well. Each sample was then incubated for an additional 18 hours prior to harvesting. After this incubation time, each sample was aspirated onto a filter mat, washed thoroughly with deionized water, dried and then counted in a scintillation counter with scintillation cocktail. […]"}, "[3]": {"system": "intracellular amastigotes of Leishmania mexicana M379", "test": "intracellular amastigote assay in infected murine macrophages", "format": "cell-based", "settings": "Leishmania mexicana, Macrophage, read-out: IC50, anti-leishmanial activity", "description": "Bone-marrow-derived macrophages (BALB/c) were cultured with L-cell-conditioned medium for 5-7 days at 35° C. After this period of incubation, mature macrophages were transferred to Labtek 4-chamber slides containing DMEM (Dulbecco's Modified Eagle's Medium) and 10% fetal calf serum. 50,000 cells were seeded in each chamber and allowed to attach overnight at 37° C. in a humidified incubator flushed with 5% CO2. On the next day the macrophages were infected at an MOI (Multiplicity of Infection) of 10:1 with stationary promastigotes of L. mexicana. After twenty-four hours, the medium was removed and fresh medium was added containing various drug concentrations (0-5 μM). Following incubation for an additional forty-eight hours, one set of slides were fixed in methanol, dried, and stained with Giemsa stain. Fresh medium and drug were added to a parallel set of chamber slides and incubated for another 48 hours before staining. […] Microscopic inspection permitted determination of % of infected macrophages and the number of amastigotes per 100 macrophages. The IC50 value is that concentration of drug that reduces the amastigote number by 50% relative to drug-free controls. Results also were obtained in parallel fashion with macrophages.\nIntracellular amastigote studies. […] Because the amastigote stage is the only relevant clinical form of the parasites, we examined the activity of the nitrogenated xanthones against the heme-auxotrophic, intracellular amastigote form of L. mexicana. Stationary promastigotes of L. mexicana M379 rapidly invaded murine peritoneal macrophages obtained from BALB/c mice and incubated at 35° C. producing heavily burdened cells with 10 to 50 amastigotes per macrophage within 24 hours. An experiment was performed to investigate the ability of selected xanthones to reduce the number of intracellular amastigotes using this model. The IC50 value is that concentration of drug required to reduce the intracellular parasite burden by 50% relative to a drug-free control chamber. We tested the xanthone series against amastigote-infected murine peritoneal macrophages. Macrophages were seeded into Labtek chamber slides (25,000 per well/8 chamber slide) and allowed to incubate overnight in Dulbecco's Modified Eagle Medium (DMEM) supplemental with 10% fetal calf serum. On the next day the cells were infected with L. mexicana promastigotes at an MOI of 5:1 and then incubated for 24 hours at 35° C. After incubation, the monolayers were washed with buffer and medium containing varying concentrations of each xanthone (0 to 10 μM) was added to each chamber. After 48 hours of incubation (i.e., Day 3 of the experiment) one set of slides was removed, fixed with methanol, and stained with Giemsa. For another set of slides, we replenished the culture medium, added fresh drug to each well as appropriate, and then incubated the chambers for another 48 hours before staining with Giemsa. IC50 values were then averaged for 3 separate experiments and the results are presented in Table 4 and graphically in FIG. 7. […] The IC50 values recorded for C5 and C6 exposure for 96 hours of treatment were 6 nM and 2 nM."}, "Leishmania donovani [4]": {"system": "Leishmania donovani", "settings": "Table 2; literature reported value; cited from earlier work"}, "[5]": {"system": "malaria Plasmodium parasites", "settings": "rufigallol combined with exifone; cited from earlier work"}}, "note": "Like-named read-outs stand apart in the source and are kept apart here.", "data": [{"compound": "COc1c(O)cc2oc3cc(O)c(CC=C(C)C)c(O)c3c(=O)c2c1CC=C(C)C", "note": "[Mangostin, reference compound]", "values": [{"measurement": "IC50", "setting": "[1]", "result": 5, "unit": "µM"}, {"measurement": "IC50", "setting": "Leishmania donovani [2]; read-out: IC50 mg/ml for Leishmania", "result": 0.00041, "unit": "mg/mL"}, {"measurement": "IC50", "setting": "[3]", "result": 0.41, "unit": "µg/mL"}, {"measurement": "IC50", "setting": "[3]; intracellular amastigote method", "result": 1, "unit": "µM"}]}, {"compound": "Stibogluconate [Stibogluconate [Sodium Antimony (V) Gluconate]]", "values": [{"measurement": "IC50 mg/ml for Leishmania", "setting": "Leishmania donovani [4]", "result": "0.1 to 1.0 literature reported value mg/ml"}]}, {"compound": "O=C1c2cc(O)c(O)c(O)c2C(=O)c2cc(O)c(O)c(O)c21", "note": "[rufigallol, 1,2,3,5,6,7,-hexahydroxy-9,10-anthraquinone]", "values": [{"measurement": "increase in potency against malaria Plasmodium parasites", "setting": "[5]", "result": "~350", "unit": "fold"}]}, {"compound": "O=c1c2cc(O)c(O)cc2oc2cc(O)c([C@@H]3O[C@H](CO)[C@@H](O)[C@H](O)[C@H]3O)c(O)c12", "note": "[Mangiferin, reference compound]", "values": [{"measurement": "IC50", "setting": "[1]", "result": 50, "unit": "µM"}, {"measurement": "IC50", "setting": "Leishmania donovani [2]; Table 2, read-out: IC50 mg/ml for Leishmania", "result": "> 0.05", "unit": "mg/mL"}]}]}
